Test results published in US9809573B2, “Substituted pyridine derivatives useful as GSK-3 inhibitors” (priority 2013, dated 2017).
Where two headings read alike, the source gives them in different places.

What was measured:
GSK3β = GSK3β (Homo sapiens, UniProt P49841); experiment: GSK3β kinase assay (Caliper LabChip3000, fluoresceinated peptide substrate); type: biochemical
How it was run: (§1)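 Kinase reactions ran at room temperature for 20 hours, then were stopped with EDTA. Phosphorylated product and unphosphorylated substrate were separated electrophoretically on a LabChip3000, and IC50s came from non-linear regression over eleven compound concentrations.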

GSK3α = GSK3α (Homo sapiens, UniProt P49840); experiment: biochemical
How it was run: as §1

pTau = pTau assay (method not described); type: cell-based
[1] = first value of the cell, 250 pM enzyme, 20 uM ATP, 20 hours at room temperature, read-out: GSK3β/α (nM): GSK3β IC50
[2] = second value of the cell, 250 pM enzyme, 20 uM ATP, 20 hours at room temperature, read-out: GSK3β/α (nM): GSK3α IC50

Chain of GSK3β (P49841 whole entry, species assumed): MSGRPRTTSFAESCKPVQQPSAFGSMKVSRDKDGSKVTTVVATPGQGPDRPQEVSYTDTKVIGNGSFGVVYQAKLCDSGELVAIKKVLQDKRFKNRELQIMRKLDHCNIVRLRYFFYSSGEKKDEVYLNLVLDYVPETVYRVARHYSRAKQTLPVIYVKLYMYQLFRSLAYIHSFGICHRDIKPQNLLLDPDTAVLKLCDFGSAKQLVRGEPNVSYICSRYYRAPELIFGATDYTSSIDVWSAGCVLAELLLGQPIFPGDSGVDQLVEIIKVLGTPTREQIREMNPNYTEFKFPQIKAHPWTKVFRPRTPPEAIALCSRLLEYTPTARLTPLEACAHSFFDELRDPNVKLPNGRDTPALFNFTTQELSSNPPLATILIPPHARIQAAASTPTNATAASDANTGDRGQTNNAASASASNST
Chain of GSK3α (P49840 whole entry, species assumed): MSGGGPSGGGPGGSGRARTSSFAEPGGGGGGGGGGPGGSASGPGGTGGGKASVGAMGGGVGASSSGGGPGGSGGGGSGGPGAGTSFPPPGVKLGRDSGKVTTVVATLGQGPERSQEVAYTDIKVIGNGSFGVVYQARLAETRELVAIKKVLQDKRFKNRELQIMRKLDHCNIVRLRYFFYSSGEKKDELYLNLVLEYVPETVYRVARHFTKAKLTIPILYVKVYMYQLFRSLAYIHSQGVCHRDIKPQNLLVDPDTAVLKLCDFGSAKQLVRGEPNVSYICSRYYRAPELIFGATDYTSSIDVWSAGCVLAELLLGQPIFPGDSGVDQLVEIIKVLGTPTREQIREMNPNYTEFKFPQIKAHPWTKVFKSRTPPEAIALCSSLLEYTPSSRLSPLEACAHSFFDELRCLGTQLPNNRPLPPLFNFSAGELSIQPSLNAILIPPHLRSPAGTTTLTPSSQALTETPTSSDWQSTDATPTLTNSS

Structure (SMILES) | IC50 (GSK3β; [1]) [nM] | IC50 (GSK3α; [2]) [nM] | IC50 (pTau; read-out: pTau) [nM] | IC50 (GSK3β) [nM] | IC50 (GSK3α) [nM] | IC50 (pTau; read-out: pTau (nM)) [nM]
CCC1(c2cc(Cl)ncc2NC(=O)c2ccnc(NC(=O)C3CCC(F)(F)C3)c2)OCCO1 (stereo not drawn) [Example 238, N-(6-chloro-4-(2-ethyl-1,3-dioxolan-2-yl)pyridin-3-yl)-2-(3,3-difluorocyclopentanecarboxamido)isonicotinamide] | 0.11 | 0.07 | 8.3 | – | – | –
Cn1c(-c2ccncc2NC(=O)c2ccnc(NC(=O)C3CC3)c2)cc2ccccc21 [Example 96, 2-(Cyclopropanecarboxamido)-N-(4-(1-methyl-1H-indol-2-yl)pyridin-3-yl)isonicotinamide] | 4.1 | 1.7 | 66 | – | – | –
C[C@@H]1CN(c2ccncc2NC(=O)c2ccnc(NC(=O)C3CC3)c2)C[C@H](C)O1 [Example 79, 2-(Cyclopropanecarboxamido)-N-(4-((2S,6R)-2,6-dimethylmorpholino)pyridin-3-yl)isonicotinamide] | – | 5.5 | 190 | 14 | – | –
CC(C)C(=O)Nc1cc(C(=O)Nc2cnccc2OCC(F)F)ccn1 [Example 204, N-(4-(2,2-Difluoroethoxy)pyridin-3-yl)-2-isobutyramidoisonicotinamide] | – | 0.97 | 41 | 1.8 | – | –
O=C(Nc1cnccc1-c1ccc(OC(F)(F)F)cc1F)c1ccnc(NC(=O)C2CC2)c1 [Example 94, 2-(Cyclopropanecarboxamido)-N-(4-(2-fluoro-4-(trifluoromethoxy)phenyl)pyridin-3-yl)isonicotinamide] | 13 | 5 | 120 | – | – | –
CC(C)C(=O)Nc1cc(C(=O)Nc2cnc(F)cc2OCC(F)F)ccn1 [Example 187, N-(4-(2,2-difluoroethoxy)-6-fluoropyridin-3-yl)-2-isobutyramidoisonicotinamide] | 2.7 | 1.2 | 210 | – | – | –
CC1CN(c2ccncc2NC(=O)c2ccnc(NC(=O)C3CC3)c2)CCO1 (racemic) [Example 46, 2-(Cyclopropanecarboxamido)-N-(4-(2-methylmorpholino)pyridin-3-yl)isonicotinamide] | – | – | – | 0.54 | 0.37 | 57
O=C(Nc1cncc(N2CCOCC2)c1)c1ccnc(NC(=O)C2CC2)c1 [Example 109, 2-(cyclopropanecarboxamido)-N-(5-morpholinopyridin-3-yl)isonicotinamide] | – | 17 | 2000 | 73 | – | –
O=C(Nc1cnccc1N1CCC(F)(F)C1)c1ccnc(NC(=O)C2CC2)c1 [Example 83, 2-(Cyclopropanecarboxamido)-N-(4-(3,3-difluoropyrrolidin-1-yl)pyridin-3-yl)isonicotinamide] | 71 | 49 | 4400 | – | – | –
CC(C)C(=O)Nc1cc(C(=O)Nc2cnccc2OCC(C)(F)F)ccn1 [Example 202, N-(4-(2,2-Difluoropropoxy)pyridin-3-yl)-2-isobutyramidoisonicotinamide] | – | – | – | 1 | 0.46 | 50
O=C(Nc1cnc2ccccc2c1)c1ccnc(NC(=O)C2CC2)c1 [Example 5, 2-(Cyclopropanecarboxamido)-N-(quinolin-3-yl)isonicotinamide] | 570 | 230 | ≥ 10000 | – | – | –
CC(C)C(=O)Nc1cc(C(=O)Nc2cnccc2C(F)c2ccccc2)ccn1 (stereo not drawn) [Example 199, N-(4-(fluoro(phenyl)methyl)pyridin-3-yl)-2-isobutyramidoisonicotinamide] | 10 | 12 | 720 | – | – | –
CC1(C)CC1C(=O)Nc1cc(C(=O)Nc2cnccc2-c2ccccc2)ccn1 (stereo not drawn) [Example 97, 2-(2,2-Dimethylcyclopropanecarboxamido)-N-(4-phenylpyridin-3-yl)isonicotinamide] | 1.1 | 8.5 | 870 | – | – | –
O=C(Nc1cncc(-c2ccc(F)nc2)c1)c1ccnc(NC(=O)C2CC2)c1 [Example 163, 2-(cyclopropanecarboxamido)-N-(6′-fluoro-[3,3′-bipyridin]-5-yl)isonicotinamide] | 6 | 1.7 | 130 | – | – | –
Cn1ccc(-c2cncc(NC(=O)c3ccnc(NC(=O)C4CC4)c3)c2)c1 [Example 151, 2-(cyclopropanecarboxamido)-N-(5-(1-methyl-1H-pyrrol-3-yl)pyridin-3-yl)isonicotinamide] | 8.8 | 3.1 | 240 | – | – | –
CC(C)C(=O)Nc1cc(C(=O)Nc2cnccc2OCCN2CCOCC2)ccn1 [Example 189, 2-Isobutyramido-N-(4-(2-morpholinoethoxy)pyridin-3-yl)isonicotinamide] | – | 1.1 | 99 | 2.3 | – | –
CC(C)C(=O)Nc1cc(C(=O)Nc2cnccc2-c2ccc(Cl)cc2)ccn1 [Example 186, N-(4-(4-chlorophenyl)pyridin-3-yl)-2-isobutyramidoisonicotinamide] | – | 6.5 | 360 | 20 | – | –

Structure (SMILES) | IC50 (GSK3β; [1]) [nM] | IC50 (GSK3α; [2]) [nM] | IC50 (pTau; read-out: pTau) [nM] | IC50 (GSK3β) [nM] | IC50 (GSK3α) [nM] | IC50 (pTau; read-out: pTau (nM)) [nM]
O=C(Nc1cnccc1-c1ccc(C(F)(F)F)cc1)c1ccnc(NC(=O)C2CC2)c1 [Example 56, 2-(Cyclopropanecarboxamido)-N-(4-(4-(trifluoromethyl)phenyl)pyridin-3-yl)isonicotinamide] | 13 | 8.4 | 230 | – | – | –
O=C(Nc1cncc(Br)c1)c1ccnc(NC(=O)C2CC2)c1 [Example 15, 2-(Cyclopropanecarboxamido)-N-(5-bromopyridin-3-yl)isonicotinamide] | 16 | 11 | 610 | – | – | –
O=C(Nc1c(-c2ccccc2)ncc2ccccc12)c1ccnc(NC(=O)C2CC2)c1 [Example 63, 2-(Cyclopropanecarboxamido)-N-(3-phenylisoquinolin-4-yl)isonicotinamide] | 12 | 56 | 4100 | – | – | –
O=C(Nc1cncc(Oc2ccccc2)c1)c1ccnc(NC(=O)C2CC2)c1 [Example 107, 2-(cyclopropanecarboxamido)-N-(5-phenoxypyridin-3-yl)isonicotinamide] | – | 9.1 | 3300 | 19 | – | –
O=C(Nc1cnccn1)c1ccnc(NC(=O)C2CC2)c1 [Example 170, 2-(Cyclopropanecarboxamido)-N-(pyrazin-2-yl)isonicotinamide] | 8.1 | 2.9 | 570 | – | – | –
O=C(Nc1cncc(-c2cccc(Cl)c2)c1)c1ccnc(NC(=O)C2CC2)c1 [Example 155, N-(5-(3-chlorophenyl)pyridin-3-yl)-2-(cyclopropanecarboxamido)isonicotinamide] | 9.1 | 3.3 | 770 | – | – | –
O=C(Nc1cncc(-c2ccnc(F)c2F)c1)c1ccnc(NC(=O)C2CC2)c1 [Example 166, 2-(cyclopropanecarboxamido)-N-(2′,3′-difluoro-[3,4′-bipyridin]-5-yl)isonicotinamide] | 44 | 11 | 360 | – | – | –
O=C(Nc1cnccc1-c1ccccc1)c1ccnc(NC(=O)C2CC(F)(F)C2)c1 [Example 216, 2-(3,3-Difluorocyclobutanecarboxamido)-N-(4-phenylpyridin-3-yl)isonicotinamide] | – | 3.4 | 120 | 1.9 | – | –
O=C(Nc1cncc(C2CC2)c1)c1ccnc(NC(=O)C2CC2)c1 [Example 22, 2-(Cyclopropanecarboxamido)-N-(5-cyclopropylpyridin-3-yl)isonicotinamide] | 7.1 | 2.4 | 250 | – | – | –
O=C(Nc1cnccc1-c1ccccc1)c1ccnc(NC(=O)C2CC2(F)F)c1 (stereo not drawn) [Example 98, 2-(2,2-Difluorocyclopropanecarboxamido)-N-(4-phenylpyridin-3-yl)isonicotinamide] | 11 | 17 | 1400 | – | – | –
O=C(Nc1c(-c2ccccc2)ccnc1Cl)c1ccnc(NC(=O)C2CC2)c1 [Example 59, N-(2-chloro-4-phenylpyridin-3-yl)-2-(cyclopropanecarboxamido)isonicotinamide] | 78 | 70 | 8200 | – | – | –
CC(C)(F)C(=O)Nc1cc(C(=O)Nc2cnccc2-c2ccccc2)ccn1 [Example 205, 2-(2-Fluoro-2-methylpropanamido)-N-(4-phenylpyridin-3-yl)isonicotinamide] | – | 52 | – | 49 | – | 5100
O=C(Nc1cnccc1-c1ccc(Cl)cc1)c1ccnc(NC(=O)C2CCC(F)(F)C2)c1 (stereo not drawn) [Example 231, N-(4-(4-chlorophenyl)pyridin-3-yl)-2-(3,3-difluorocyclopentanecarboxamido)isonicotinamide] | – | 0.9 | 30 | 0.46 | – | –
O=C(Nc1cncc(-c2ccccc2F)n1)c1ccnc(NC(=O)C2CC2)c1 [Example 180, 2-(Cyclopropanecarboxamido)-N-(6-(2-fluorophenyl)pyrazin-2-yl)isonicotinamide] | 6.2 | 1.2 | 190 | – | – | –
O=C(Nc1cncc(-c2cccc3[nH]ccc23)c1)c1ccnc(NC(=O)C2CC2)c1 [Example 147, N-(5-(1H-indol-4-yl)pyridin-3-yl)-2-(cyclopropanecarboxamido)isonicotinamide] | 27 | 5.9 | 950 | – | – | –
C[C@H]1COCCN1c1ccncc1NC(=O)c1ccnc(NC(=O)C2CC2)c1 [Example 54, (S)-2-(cyclopropanecarboxamido)-N-(4-(3-methylmorpholino)pyridin-3-yl)isonicotinamide] | – | 0.07 | 2 | 0.06 | – | –
O=C(Nc1cncc(Cc2ccccc2)c1)c1ccnc(NC(=O)C2CC2)c1 [Example 110, N-(5-benzylpyridin-3-yl)-2-(cyclopropanecarboxamido)isonicotinamide] | 73 | 11 | 5600 | – | – | –
